Test results from ChEMBL document CHEMBL2375306, “Antimicrobial peptides containing unnatural amino acid exhibit potent bactericidal activity against ESKAPE pathogens” (Bioorg Med Chem, 2013).
In brackets after ≈: the same amount, converted by molar mass. Square brackets hold non-standard residues; d marks the D form. Peptide text beside a SMILES is read from it. * marks the point of attachment. ξ: configuration not given here. Pro(3ξ,4ξ-(CH2)4) = O=C(O)[C@H]1NCC2CCCCC21; Tic = O=C(O)[C@@H]1Cc2ccccc2CN1; X4 = CC(=O)NC(=O)[C@H](CCCN)N*; X1 = CC(=O)NC(=O)[C@H](CN)N*; Orn = NCCC[C@H](N)C(=O)O; Dap = NC[C@H](N)C(=O)O

Experiments:
Format in all cases: functional
Enterococcus faecium = experiment: Antibacterial activity against Enterococcus faecium MMC4 after 24 hrs by broth microdilution method; conditions: MMC4, 24 h
Klebsiella aerogenes = experiment: Antibacterial activity against Enterobacter aerogenes after 24 hrs by broth microdilution method
Pseudomonas aeruginosa = experiment: Antibacterial activity against Pseudomonas aeruginosa PAO1 after 24 hrs by broth microdilution method; conditions: PAO1, 24 h
Klebsiella pneumoniae = experiment: Antibacterial activity against Klebsiella pneumoniae BAMS clinical isolate 07-18 after 24 hrs by broth microdilution method; conditions: BAMS clinical isolate 07-18, 24 h
Acinetobacter baumannii = experiment: Antibacterial activity against Acinetobacter baumannii WRAIR clinical isolate 13 after 24 hrs by broth microdilution method; conditions: WRAIR clinical isolate 13, 24 h
Staphylococcus aureus = experiment: Antibacterial activity against methicillin-sensitive Staphylococcus aureus UAMS-1 after 24 hrs by broth microdilution method; conditions: UAMS-1, 24 h

Row | MIC (Enterococcus faecium) [µg/mL] | MIC (Klebsiella aerogenes) [µg/mL] | MIC (Pseudomonas aeruginosa) [µg/mL] | MIC (Klebsiella pneumoniae) [µg/mL] | MIC (Acinetobacter baumannii) [µg/mL] | MIC (Staphylococcus aureus) [µg/mL] | Structure (SMILES) | MBC (Enterococcus faecium) [µg/mL] | MBC (Klebsiella aerogenes) [µg/mL] | MBC (Pseudomonas aeruginosa) [µg/mL] | MBC (Klebsiella pneumoniae) [µg/mL] | MBC (Acinetobacter baumannii) [µg/mL] | MBC (Staphylococcus aureus) [µg/mL]
1 | 25 (≈ 10.2 µM) | 100 (≈ 41 µM) | 100 (≈ 41 µM) | 100 (≈ 41 µM) | 6.25 (≈ 2.56 µM) | > 100 | CC(=O)NCC(=O)N[C@@H](Cc1ccccc1)C(=O)N1Cc2ccccc2C[C@H]1C(=O)N1CC2CCCCC2[C@H]1C(=O)NCC(=O)N[C@@H](CCCCN)C(=O)N1Cc2ccccc2C[C@H]1C(=O)N1CC2CCCCC2[C@H]1C(=O)NCC(=O)N[C@@H](Cc1ccccc1)C(=O)N1Cc2ccccc2C[C@H]1C(=O)N1CC2CCCCC2[C@H]1C(=O)NCC(=O)N[C@@H](CCCCN)C(=O)N1Cc2ccccc2C[C@H]1C(=O)N[C@@H](CCCCN)C(=O)N[C@@H](CCCCN)C(=O)N[C@@H](CCCCN)C(=O)N[C@@H](CCCCN)C(N)=O (stereo not given in full) (Ac-GF[Tic][Pro(3ξ,4ξ-(CH2)4)]GK[Tic][Pro(3ξ,4ξ-(CH2)4)]GF[Tic][Pro(3ξ,4ξ-(CH2)4)]GK[Tic]KKKK-NH2) | 50 (≈ 20.5 µM) | 100 (≈ 41 µM) | 100 (≈ 41 µM) | 100 (≈ 41 µM) | 25 (≈ 10.2 µM) | > 100
2 | 6.25 (≈ 2.4 µM) | 50 (≈ 19.2 µM) | 100 (≈ 38.3 µM) | 50 (≈ 19.2 µM) | 6.25 (≈ 2.4 µM) | 50 (≈ 19.2 µM) | CC(=O)NCC(=O)N[C@@H](Cc1ccccc1)C(=O)N1Cc2ccccc2C[C@H]1C(=O)N1CC2CCCCC2[C@H]1C(=O)NCC(=O)N[C@@H](CCCNC(=N)N)C(=O)N1Cc2ccccc2C[C@H]1C(=O)N1CC2CCCCC2[C@H]1C(=O)NCC(=O)N[C@@H](Cc1ccccc1)C(=O)N1Cc2ccccc2C[C@H]1C(=O)N1CC2CCCCC2[C@H]1C(=O)NCC(=O)N[C@@H](CCCNC(=N)N)C(=O)N1Cc2ccccc2C[C@H]1C(=O)N[C@@H](CCCNC(=N)N)C(=O)N[C@@H](CCCNC(=N)N)C(=O)N[C@@H](CCCNC(=N)N)C(=O)N[C@@H](CCCNC(=N)N)C(N)=O (stereo not given in full) (Ac-GF[Tic][Pro(3ξ,4ξ-(CH2)4)]GR[Tic][Pro(3ξ,4ξ-(CH2)4)]GF[Tic][Pro(3ξ,4ξ-(CH2)4)]GR[Tic]RRRR-NH2) | 25 (≈ 9.58 µM) | 50 (≈ 19.2 µM) | > 100 | 100 (≈ 38.3 µM) | 12.5 (≈ 4.79 µM) | > 100
3 | 25 (≈ 9.78 µM) | > 100 | > 100 | > 100 | 25 (≈ 9.78 µM) | > 100 | CC(=O)NCC(=O)N[C@@H](Cc1ccccc1)C(=O)N1Cc2ccccc2C[C@H]1C(=O)N1CC2CCCCC2[C@H]1C(=O)NCC(=O)N[C@@H](Cc1c[nH]c2ccccc12)C(=O)N1Cc2ccccc2C[C@H]1C(=O)N1CC2CCCCC2[C@H]1C(=O)NCC(=O)N[C@@H](Cc1ccccc1)C(=O)N1Cc2ccccc2C[C@H]1C(=O)N1CC2CCCCC2[C@H]1C(=O)NCC(=O)N[C@@H](Cc1c[nH]c2ccccc12)C(=O)N1Cc2ccccc2C[C@H]1C(=O)N[C@@H](CCCCN)C(=O)N[C@@H](CCCCN)C(=O)N[C@@H](CCCCN)C(=O)N[C@@H](CCCCN)C(N)=O (stereo not given in full) (Ac-GF[Tic][Pro(3ξ,4ξ-(CH2)4)]GW[Tic][Pro(3ξ,4ξ-(CH2)4)]GF[Tic][Pro(3ξ,4ξ-(CH2)4)]GW[Tic]KKKK-NH2) | 100 (≈ 39.1 µM) | > 100 | > 100 | > 100 | 100 (≈ 39.1 µM) | > 100
4 | 50 (≈ 22.4 µM) | 50 (≈ 22.4 µM) | 25 (≈ 11.2 µM) | 12.5 (≈ 5.6 µM) | 12.5 (≈ 5.6 µM) | > 100 | CC(=O)NCC(=O)N[C@@H](Cc1ccccc1)C(=O)N1Cc2ccccc2C[C@H]1C(=O)N1CC2CCCCC2[C@H]1C(=O)NCC(=O)N[C@@H](CN)C(=O)N1Cc2ccccc2C[C@H]1C(=O)N1CC2CCCCC2[C@H]1C(=O)NCC(=O)N[C@@H](Cc1ccccc1)C(=O)N1Cc2ccccc2C[C@H]1C(=O)N1CC2CCCCC2[C@H]1C(=O)NCC(=O)N[C@@H](CN)C(=O)N1Cc2ccccc2C[C@H]1C(=O)N[C@@H](CN)C(=O)N[C@@H](CN)C(=O)N[C@@H](CN)C(=O)N[C@@H](CN)C(=O)NC(C)=O (stereo not given in full) (Ac-GF[Tic][Pro(3ξ,4ξ-(CH2)4)]G[Dap][Tic][Pro(3ξ,4ξ-(CH2)4)]GF[Tic][Pro(3ξ,4ξ-(CH2)4)]G[Dap][Tic][Dap][Dap][Dap]-X1) | 100 (≈ 44.8 µM) | 50 (≈ 22.4 µM) | 25 (≈ 11.2 µM) | 25 (≈ 11.2 µM) | 12.5 (≈ 5.6 µM) | 100 (≈ 44.8 µM)
5 | 12.5 (≈ 5.21 µM) | 100 (≈ 41.7 µM) | 50 (≈ 20.8 µM) | 50 (≈ 20.8 µM) | 6.25 (≈ 2.61 µM) | 100 (≈ 41.7 µM) | CC(=O)NCC(=O)N[C@@H](Cc1ccccc1)C(=O)N1Cc2ccccc2C[C@H]1C(=O)N1CC2CCCCC2[C@H]1C(=O)NCC(=O)N[C@@H](CCCN)C(=O)N1Cc2ccccc2C[C@H]1C(=O)N1CC2CCCCC2[C@H]1C(=O)NCC(=O)N[C@@H](Cc1ccccc1)C(=O)N1Cc2ccccc2C[C@H]1C(=O)N1CC2CCCCC2[C@H]1C(=O)NCC(=O)N[C@@H](CCCN)C(=O)N1Cc2ccccc2C[C@H]1C(=O)N[C@@H](CCCN)C(=O)N[C@@H](CCCN)C(=O)N[C@@H](CCCN)C(=O)N[C@@H](CCCN)C(=O)NC(C)=O (stereo not given in full) (Ac-GF[Tic][Pro(3ξ,4ξ-(CH2)4)]G[Orn][Tic][Pro(3ξ,4ξ-(CH2)4)]GF[Tic][Pro(3ξ,4ξ-(CH2)4)]G[Orn][Tic][Orn][Orn][Orn]-X4) | 50 (≈ 20.8 µM) | > 100 | 50 (≈ 20.8 µM) | 50 (≈ 20.8 µM) | 25 (≈ 10.4 µM) | 100 (≈ 41.7 µM)
